Experiment [1] has as its system human endometrial cancer cell strain AN3CA. Briefly: Cell growth inhibition test (MTT), AN3CA. It is filed as cell-based. Conditions: AN3-CA, 72 h, 3 days culture, read-out: concentration exhibiting anti-cell effect (GI50). A digest of the protocol: (§1)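 Seed 5000/1000/5000 cells per well (AN3CA/IGROV1/HT29); add compound next day; culture 3 d, 37° C, 5% CO2; MTT 4 h, DMSO, A540. T/C % vs pre-dose baseline; GI50 from bracketing concentrations.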

Experiment [2] concerns the target T1, human mTOR (His-tagged mTOR (1362C)) (Homo sapiens, UniProt P42345).
T1 construct: the 1362 to 2549 amino acid portion on the C terminus side of human mTOR; His tag (N); made in house
Put plainly: mTOR kinase activity inhibition assay. It is filed as biochemical. Conditions: HTRF, read-out: IC50 against mTOR. The procedure, abridged: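 Crude His-tagged mTOR (aa 1362–2549) from stable HEK293 cells, with 8 μg/ml biotinylated peptide in 50 mM HEPES pH 7.5, 20 mM MnCl2; compound diluted in 20 μM ATP solution, reaction 3 h at room temperature. Phospho-peptide detected by HTRF (anti-phospho-S6K Thr389 cryptate/streptavidin-XL665, overnight at 4°C), 665/620 nm ratio. IC50 derived from curve fit of % inhibition.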
In general terms: In TR-FRET formats the signal depends on donor and acceptor labels being close together.

In experiment [3] the test system is human ovary cancer cell strain IGROV1. Put plainly: Cell growth inhibition test (MTT), IGROV1. Conditions: IGROV-1, 72 h, IGROV1, 3 days culture, read-out: concentration exhibiting anti-cell effect (GI50). It is filed as cell-based. The procedure, abridged: as §1
Experiment [4] deals with human colon cancer cell strain HT29. Briefly: Cell growth inhibition test (MTT), HT29. The following applies: HT-29, 72 h, HT29, 3 days culture, read-out: concentration exhibiting anti-cell effect (GI50). Format: cell-based. The procedure, abridged:
as §1

Molecules are shown by their SMILES.

The IC50 is the concentration that inhibits the measured activity by half.

T1 sequence (P42345 1362-2549): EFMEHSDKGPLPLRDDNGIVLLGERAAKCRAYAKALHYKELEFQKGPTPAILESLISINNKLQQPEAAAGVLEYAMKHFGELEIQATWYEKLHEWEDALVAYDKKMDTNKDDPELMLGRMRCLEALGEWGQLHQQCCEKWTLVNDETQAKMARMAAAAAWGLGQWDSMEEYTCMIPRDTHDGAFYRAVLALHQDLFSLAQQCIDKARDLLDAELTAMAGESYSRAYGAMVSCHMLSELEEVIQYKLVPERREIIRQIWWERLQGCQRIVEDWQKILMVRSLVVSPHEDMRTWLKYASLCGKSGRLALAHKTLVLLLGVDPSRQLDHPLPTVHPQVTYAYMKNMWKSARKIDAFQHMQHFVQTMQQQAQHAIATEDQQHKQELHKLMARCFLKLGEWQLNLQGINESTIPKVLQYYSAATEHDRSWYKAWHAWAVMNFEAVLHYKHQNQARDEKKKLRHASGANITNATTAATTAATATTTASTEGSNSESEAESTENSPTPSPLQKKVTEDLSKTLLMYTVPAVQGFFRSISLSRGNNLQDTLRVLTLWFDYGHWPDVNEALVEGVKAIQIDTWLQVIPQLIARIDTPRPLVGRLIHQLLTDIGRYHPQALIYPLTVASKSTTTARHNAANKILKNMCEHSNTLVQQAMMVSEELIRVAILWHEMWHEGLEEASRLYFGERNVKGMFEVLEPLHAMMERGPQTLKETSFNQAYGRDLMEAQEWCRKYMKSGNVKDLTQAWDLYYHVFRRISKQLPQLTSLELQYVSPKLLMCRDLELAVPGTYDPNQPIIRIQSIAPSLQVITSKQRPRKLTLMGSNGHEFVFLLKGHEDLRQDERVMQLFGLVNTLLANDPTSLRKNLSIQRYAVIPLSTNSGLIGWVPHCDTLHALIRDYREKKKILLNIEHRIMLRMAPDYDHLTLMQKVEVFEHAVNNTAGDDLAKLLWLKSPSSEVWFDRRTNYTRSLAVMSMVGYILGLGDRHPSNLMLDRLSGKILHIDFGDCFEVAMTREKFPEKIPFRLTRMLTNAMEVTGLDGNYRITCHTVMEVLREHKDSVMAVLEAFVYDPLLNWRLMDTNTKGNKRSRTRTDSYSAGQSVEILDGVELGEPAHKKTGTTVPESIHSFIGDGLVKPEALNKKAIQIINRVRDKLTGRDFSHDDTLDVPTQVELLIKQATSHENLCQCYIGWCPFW

With `CC(C)Cn1c(N2CCN(C(=O)CO)CC2)nc2c(N3CCOC[C@@H]3C)nc(-c3cnc(N)nc3)nc21` [Example 130, 2-(4-{2-(2-Aminopyrimidin-5-yl)-9-isobutyl-6-[(3S)-3-methylmorpholin-4-yl]-9H-purin-8-yl}piperazin-1-yl)-2-oxoethanol], the GI50 in experiment [1], in experiment [3] and in experiment [4] was not above 5 µM each time. Besides, in experiment [2], the IC50 was less than 0.01 µM.
As to `CC(C)Cn1c(N2CCN(C(=O)[C@H](C)O)CC2)nc2c(N3CCOC[C@@H]3C)nc(-c3cnc(N)nc3)nc21` [Example 131, (2S)-1-(4-{2-(2-Aminopyrimidin-5-yl)-9-isobutyl-6-[(3S)-3-methylmorpholin-4-yl]-9H-purin-8-yl}piperazin-1-yl)-1-oxopropan-2-ol], the GI50 in experiment [1], in experiment [3] and in experiment [4] was not above 5 µM each time. In addition, the IC50 in experiment [2] was 0.01 to 0.03 µM.
Turning to `CC(C)Cn1c(N2CCN(C=O)CC2)nc2c(N3CCOC[C@@H]3C)nc(-c3cnc(N)nc3)nc21` [Example 132, 4-{2-(2-Aminopyrimidin-5-yl)-9-isobutyl-6-[(3S)-3-methylmorpholin-4-yl]-9H-purin-8-yl}piperazine-1-carboaldehyde], the GI50 in experiment [1], in experiment [3] and in experiment [4] was not above 5 µM throughout. Also, in experiment [2], the IC50 was 0.01 to 0.03 µM.
In the case of `CNc1ncc(-c2nc(N3CCOCC3)c3nc(N4CCN(C(C)=O)CC4)n(CC(F)(F)F)c3n2)cn1` [Example 134, 5-[8-(4-Acetylpiperazin-1-yl)-6-morpholin-4-yl-9-(2,2,2-trifluoroethyl)-9H-purin-2-yl]-N-methylpyrimidin-2-amine], the GI50 in experiment [1], in experiment [3] and in experiment [4] was not above 5 µM throughout. For the same molecule, the IC50 in experiment [2] was less than 0.01 µM.

Source of the values: patent US8309546B2, “Morpholinopurine derivatives” (Daiichi Sankyo Company, Limited, priority 2008, dated 2012).
